Values quoted from earlier work in patent publication US6939400B2, “Ink, production method of the same materials for producing the same and printed matter with the same” (Teikoku Printing Mfg. Co., Ltd., priority 2002, dated 2005).

Tested on: mouse

COC(C)(C)CCO [3-methyl-3-methoxy-1-butanol]
LD 50 value representing the mouse oral toxicity: 5,830 mg/kg
